A word on the AC50: it is the concentration giving half of the maximal activity seen. A word on the EC50: it is the concentration giving half of the maximal effect. One may read the IC50 as the concentration at which inhibition is half-maximal.

This note sets out measurements from ChEMBL document CHEMBL1201862, “PubChem BioAssay data set” (2004).

The structures appear in SMILES notation. Where “and” joins values, the source holds several entries; their conditions need not be identical. Equal values may be shown once. Calls of active or inactive are those of the source. Where only a bound is given, the exact number is not on record here.

Assay [1] addresses T1, Replicative DNA helicase DnaB (Mycobacterium tuberculosis, UniProt P9WMR3).
T1 sequence (P9WMR3 whole entry): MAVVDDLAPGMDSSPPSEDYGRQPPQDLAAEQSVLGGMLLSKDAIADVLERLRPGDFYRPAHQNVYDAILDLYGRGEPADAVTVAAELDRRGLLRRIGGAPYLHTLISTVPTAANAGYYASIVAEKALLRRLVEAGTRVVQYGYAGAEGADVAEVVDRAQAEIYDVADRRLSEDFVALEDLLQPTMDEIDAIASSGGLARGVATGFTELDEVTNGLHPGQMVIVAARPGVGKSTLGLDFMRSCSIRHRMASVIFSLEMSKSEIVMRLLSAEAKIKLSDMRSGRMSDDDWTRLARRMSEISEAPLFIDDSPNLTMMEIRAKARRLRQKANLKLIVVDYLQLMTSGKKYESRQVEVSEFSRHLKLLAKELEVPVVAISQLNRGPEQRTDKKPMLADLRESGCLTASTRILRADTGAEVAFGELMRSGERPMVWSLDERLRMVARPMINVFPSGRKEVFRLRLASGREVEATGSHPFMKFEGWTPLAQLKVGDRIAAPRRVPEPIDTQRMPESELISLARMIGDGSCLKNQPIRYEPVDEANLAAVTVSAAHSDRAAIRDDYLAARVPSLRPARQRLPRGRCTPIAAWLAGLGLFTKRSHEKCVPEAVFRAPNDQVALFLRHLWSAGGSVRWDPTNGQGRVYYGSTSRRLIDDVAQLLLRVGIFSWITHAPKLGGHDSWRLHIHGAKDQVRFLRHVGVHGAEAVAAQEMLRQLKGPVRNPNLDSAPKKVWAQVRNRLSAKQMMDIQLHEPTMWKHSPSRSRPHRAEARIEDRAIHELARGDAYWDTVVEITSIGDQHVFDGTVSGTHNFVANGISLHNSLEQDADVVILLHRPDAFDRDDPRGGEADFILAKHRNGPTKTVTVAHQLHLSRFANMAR
Nature of the assay: DnaB intein splicing inhibitors, dose response, biochemical, cell-free fluorescence (AID 449749). It is filed as functional.

A further assay addresses T2, Protein RecA (Mycobacterium tuberculosis, UniProt P9WHJ3).
T2 sequence (P9WHJ3 whole entry): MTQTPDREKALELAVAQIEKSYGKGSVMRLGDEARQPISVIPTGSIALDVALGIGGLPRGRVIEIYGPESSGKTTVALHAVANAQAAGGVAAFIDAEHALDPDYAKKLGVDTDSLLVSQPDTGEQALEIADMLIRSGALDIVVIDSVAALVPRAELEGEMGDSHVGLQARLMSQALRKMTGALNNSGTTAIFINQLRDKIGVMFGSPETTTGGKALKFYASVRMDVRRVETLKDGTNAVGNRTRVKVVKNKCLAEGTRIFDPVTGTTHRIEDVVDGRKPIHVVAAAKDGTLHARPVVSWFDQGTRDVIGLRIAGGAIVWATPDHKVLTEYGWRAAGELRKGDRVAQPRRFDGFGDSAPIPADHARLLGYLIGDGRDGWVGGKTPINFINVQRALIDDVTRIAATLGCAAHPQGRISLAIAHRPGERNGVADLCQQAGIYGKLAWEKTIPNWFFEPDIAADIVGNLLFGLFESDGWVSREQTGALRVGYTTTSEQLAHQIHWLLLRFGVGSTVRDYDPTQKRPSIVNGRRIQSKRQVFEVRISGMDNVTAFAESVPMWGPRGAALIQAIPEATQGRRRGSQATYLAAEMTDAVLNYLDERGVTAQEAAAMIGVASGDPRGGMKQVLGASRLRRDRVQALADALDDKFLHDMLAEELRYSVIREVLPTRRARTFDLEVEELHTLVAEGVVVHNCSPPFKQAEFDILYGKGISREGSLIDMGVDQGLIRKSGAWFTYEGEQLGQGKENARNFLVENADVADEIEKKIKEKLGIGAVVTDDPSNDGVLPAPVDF
In words: Fluorescence Cell-Free Homogeneous Dose Retest to Identify Inhibitors of RecA-Intein Splicing Activity. [Related pubchem assays (depositor defined):AID2097, AID2223, AID489010, AID492950]. It is filed as functional.

Assay [2] deals with T3, Rac GTPase-activating protein 1 (Homo sapiens, UniProt Q9H0H5).
T3 sequence (Q9H0H5 whole entry): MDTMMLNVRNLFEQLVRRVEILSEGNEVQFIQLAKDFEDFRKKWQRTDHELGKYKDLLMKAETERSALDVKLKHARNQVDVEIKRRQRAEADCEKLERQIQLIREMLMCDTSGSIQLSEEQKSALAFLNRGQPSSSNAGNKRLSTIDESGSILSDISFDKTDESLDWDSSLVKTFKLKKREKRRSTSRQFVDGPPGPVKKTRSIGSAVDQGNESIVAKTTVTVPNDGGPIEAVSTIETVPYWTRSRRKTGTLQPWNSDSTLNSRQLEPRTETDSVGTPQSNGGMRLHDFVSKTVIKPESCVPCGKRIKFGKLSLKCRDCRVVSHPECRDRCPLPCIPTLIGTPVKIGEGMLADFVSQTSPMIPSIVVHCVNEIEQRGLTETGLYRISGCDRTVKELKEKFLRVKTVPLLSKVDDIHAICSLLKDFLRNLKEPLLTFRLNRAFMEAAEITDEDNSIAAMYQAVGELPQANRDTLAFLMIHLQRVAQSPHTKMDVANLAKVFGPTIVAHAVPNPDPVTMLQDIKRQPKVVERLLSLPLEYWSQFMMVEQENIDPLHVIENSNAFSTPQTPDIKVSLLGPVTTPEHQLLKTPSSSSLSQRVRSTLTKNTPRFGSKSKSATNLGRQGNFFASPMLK
Nature of the assay: blockers of MgcRacGAP-driven Rac1 GTP hydrolysis – biochemical, ADP Hunter fluorescence, primary and confirmatory, confirmation (AID 624330). It is filed as functional.

A further assay has as its target Cytochrome P450 3A4 (Homo sapiens, UniProt P08684).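 Further: CYP3A4 tested as one member of a cytochrome P450 panel screen.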
Assay [3] can be described thus: Luminescence Cell-Based Dose Retest to Confirm Inhibitors of Cancer Stem Cells. [Related pubchem assays (depositor defined):AID2717, AID2721]. It is filed as functional. The note with it: Homo sapiens.
Assay [4] can be described thus: NIH-3T3 fibroblast cytotoxicity, dose response, cytotoxicity control, cell-based, fluorescence, Alamar Blue, secondary assay (AID 2327).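 Further: NIH-3T3 mouse fibroblasts cultured with fluconazole at 8 µg/mL.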 It is filed as functional.
The nature of assay [5]: fluconazole-exposed Candida albicans growth modulators – fluorescence, retest, confirmation (AID 2467). It is filed as functional, cell-based.
For another assay, the target named is Cytochrome P450 2C19 (Homo sapiens, UniProt P33261). In words: Cytochrome panel assay with activity outcomes. Panel member name: p450-cyp2c19 Compounds with AC50 equal or less than 10 uM are considered active. It is filed as functional. The conditions noted are these: read-out: AC50.
In the next assay the target is T4, Cytochrome P450 1A2 (Homo sapiens, UniProt P05177).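 Further: PubChem cytochrome P450 panel assay, CYP1A2 panel member.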
T4 sequence (P05177 whole entry): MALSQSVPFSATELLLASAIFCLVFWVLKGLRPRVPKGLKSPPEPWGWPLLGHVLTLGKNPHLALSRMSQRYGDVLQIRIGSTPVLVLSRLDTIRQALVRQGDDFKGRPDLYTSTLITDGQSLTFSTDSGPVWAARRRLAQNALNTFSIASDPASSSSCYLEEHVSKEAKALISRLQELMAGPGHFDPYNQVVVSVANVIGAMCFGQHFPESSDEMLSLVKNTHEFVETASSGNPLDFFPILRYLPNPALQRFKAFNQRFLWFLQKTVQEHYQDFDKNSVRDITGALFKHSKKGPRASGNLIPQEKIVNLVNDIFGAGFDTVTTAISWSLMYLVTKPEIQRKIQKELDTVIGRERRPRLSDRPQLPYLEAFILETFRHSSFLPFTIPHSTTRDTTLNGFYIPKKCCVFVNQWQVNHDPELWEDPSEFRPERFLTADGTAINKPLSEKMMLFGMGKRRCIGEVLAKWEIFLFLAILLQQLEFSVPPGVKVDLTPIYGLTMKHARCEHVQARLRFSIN

For the next assay, the target named is Cytochrome P450 2C9 (Homo sapiens, UniProt P11712).
Assay [6] in a line: reduction of Shn3 3'UTR-driven luciferase in osteoblasts – cell-based, Clone20 osteoblasts, firefly luciferase, cherry-picked, dose response (AID 624132).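 Further: firefly luciferase luminescence from reporter carrying the Shn3 3'UTR in osteoblasts.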 It is filed as functional.
Assay [7] can be described thus: loss of viability in HepG2 cells – cell-based, CellTiter-Glo, cherry-picked, cytotoxicity control for Shn3 inhibitor project, dose response (AID 624134). It is filed as functional. A general note: ATP-based viability assays read luminescence as a measure of living cells.
Assay [8] in a line: non-specific 3'UTR reporter inhibition in Clone20-Shn3RL – cell-based, Renilla luciferase, cherry-picked, counter-screen for Shn3 inhibitor project, dose response (AID 624133). It is filed as functional. Background: A counterscreen serves to expose hits that act by an unwanted route or on another target.

Sequence of Cytochrome P450 2C9 (P11712 whole entry): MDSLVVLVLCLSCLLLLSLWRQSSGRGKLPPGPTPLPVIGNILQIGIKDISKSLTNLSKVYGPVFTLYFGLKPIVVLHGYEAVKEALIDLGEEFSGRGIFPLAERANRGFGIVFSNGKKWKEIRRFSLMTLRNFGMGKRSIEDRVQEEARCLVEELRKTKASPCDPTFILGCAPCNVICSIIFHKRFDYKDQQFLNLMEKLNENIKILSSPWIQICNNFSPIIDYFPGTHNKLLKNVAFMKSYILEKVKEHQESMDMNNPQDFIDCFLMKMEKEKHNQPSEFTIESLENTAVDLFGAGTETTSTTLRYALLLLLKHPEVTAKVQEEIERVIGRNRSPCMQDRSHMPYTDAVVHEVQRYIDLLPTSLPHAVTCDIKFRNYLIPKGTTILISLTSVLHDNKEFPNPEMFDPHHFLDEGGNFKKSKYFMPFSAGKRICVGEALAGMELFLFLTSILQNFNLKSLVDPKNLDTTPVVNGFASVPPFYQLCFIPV
Sequence of Cytochrome P450 3A4 (P08684 whole entry): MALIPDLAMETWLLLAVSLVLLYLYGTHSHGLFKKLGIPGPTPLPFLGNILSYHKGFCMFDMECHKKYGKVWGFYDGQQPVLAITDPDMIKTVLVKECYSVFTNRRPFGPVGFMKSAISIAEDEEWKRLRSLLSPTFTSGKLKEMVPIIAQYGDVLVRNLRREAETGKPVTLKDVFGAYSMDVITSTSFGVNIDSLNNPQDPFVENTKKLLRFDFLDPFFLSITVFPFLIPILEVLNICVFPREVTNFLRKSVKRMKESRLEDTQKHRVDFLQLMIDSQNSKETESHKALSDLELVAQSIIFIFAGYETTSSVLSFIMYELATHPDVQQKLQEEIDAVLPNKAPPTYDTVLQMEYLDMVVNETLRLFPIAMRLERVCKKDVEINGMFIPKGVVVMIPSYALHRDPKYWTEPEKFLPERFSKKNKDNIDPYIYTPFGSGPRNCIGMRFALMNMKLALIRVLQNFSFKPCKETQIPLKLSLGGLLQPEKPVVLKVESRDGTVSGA
Sequence of Cytochrome P450 2C19 (P33261 whole entry): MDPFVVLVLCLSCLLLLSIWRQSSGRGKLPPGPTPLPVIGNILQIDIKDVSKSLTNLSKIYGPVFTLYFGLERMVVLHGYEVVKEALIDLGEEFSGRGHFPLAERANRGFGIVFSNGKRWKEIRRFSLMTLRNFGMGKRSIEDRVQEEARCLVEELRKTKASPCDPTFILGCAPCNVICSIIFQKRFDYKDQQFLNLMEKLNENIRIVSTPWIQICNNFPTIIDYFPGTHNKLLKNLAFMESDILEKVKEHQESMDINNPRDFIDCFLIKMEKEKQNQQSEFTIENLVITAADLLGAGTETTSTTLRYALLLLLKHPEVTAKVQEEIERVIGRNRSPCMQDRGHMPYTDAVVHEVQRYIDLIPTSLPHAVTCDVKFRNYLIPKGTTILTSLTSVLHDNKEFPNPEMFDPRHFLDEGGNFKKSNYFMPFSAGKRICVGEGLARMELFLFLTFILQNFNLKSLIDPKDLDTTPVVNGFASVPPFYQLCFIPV

As to `Nc1ccc2[nH]c(Cc3ccccc3)nc2c1`, the AC50 in [1] is > 380 µM (inactive). In addition, the EC50 at Protein RecA is 55.9 µM (active). Besides, the IC50 in assay [2] is 76.2 µM (active).

Consider `COc1ccc(C(=O)N2CCC3(CCN(Cc4cc(C(F)(F)F)cc(C(F)(F)F)c4)CC3)CC2)cc1`, for which the AC50 at Cytochrome P450 3A4 was 25.1 µM (inconclusive).

Take `COc1ccc(-c2sc3ccccc3c2C#CCCO)cc1`: the AC50 in assay [3] was 4.81 µM (active).

`CCOC(=O)C1=C(N)Oc2cc(O)ccc2C1c1cccc(Cl)c1` (configuration not stated): the AC50 in [3] is 1.77 µM (active).

For `Cc1cccc(NC(=S)N/N=C(\c2ccccc2)C(C)C)c1`, the concentration giving a half-maximal response (EC50) was > 150 µM (inconclusive) in assay [4] and 3.98 µM (active) in assay [5].

Turning to `CC(C)(C)OC(=O)N1CCC(NC(=O)c2[nH]cnc2C(=O)Nc2ccc(Cl)cc2)CC1`, the AC50 in assay [3] was 4.79 µM (active).

Consider `COc1ccc(Oc2ncc3nc(CCc4ccccc4)c(=O)n(C4CC4)c3n2)cc1`, for which, at Cytochrome P450 3A4, the AC50 was 5.01 µM (inconclusive).

As to `C/C(NNc1ccccc1)=C1/C(=O)NC(=O)N(c2ccccc2)C1=O`, in [3], the AC50 was 1.05 µM (active).

Regarding `O=C(c1ccncc1)N1CCC2(CC1)CN(c1ccc(-c3ccccc3)cc1)C2`, the AC50 at Cytochrome P450 2C19 and at Cytochrome P450 3A4 was 2.51 µM (inconclusive) in each case.

On to `COc1ccc(CCNC(=O)Cn2c(=O)oc3ccccc32)cc1OC`, for which the values for the AC50 on Cytochrome P450 1A2, on Cytochrome P450 3A4 and at Cytochrome P450 2C9 were 12.6 µM (inconclusive), 22.4 µM (inconclusive) and 2.51 µM (inconclusive), respectively.

Take `O=c1cc(N2CCOCC2)oc2c(-c3ccccc3)cccc12` [LY-294002]: the AC50 on Cytochrome P450 3A4 was 10 µM (inconclusive) and 5.01 µM (inconclusive).

Take `Cc1nnc(SCC(=O)NCC2CCCCC2)n(N)c1=O`: the AC50 at Cytochrome P450 1A2 and at Cytochrome P450 3A4 was 25.1 µM (inconclusive) throughout.

For `Cc1ccc(NC(=O)C2C(C(=O)O)C3C=CC2C32CC2)cc1` (configuration not stated), the EC50 in [4] is 46.2 µM (active); in assay [5], > 38 µM (not active).

On to `COc1ccc2sc(-c3ccc(SC)cc3)c(-c3ccc(O)cc3)c2c1`, for which the AC50 in assay [3] is 2.61 µM (active).

Consider `O=C(c1ccoc1)N1CCC2(CC1)Oc1ccc(F)cc1C(=O)C21CC(c2ccccc2)=NO1` (configuration not stated), for which the half-maximal effective concentration (EC50) in assay [4] is > 150 µM (inconclusive); in assay [5], 1.18 µM (active).

As to `Cc1ccc(C2C(C(=O)c3ccccc3)=C(O)C(=O)N2CCN2CCOCC2)o1` (configuration not stated), the AC50 on Cytochrome P450 2C19 is 14.1 µM (inconclusive); on Cytochrome P450 3A4 it was 25.1 µM (inconclusive); on Cytochrome P450 2C9, 7.08 µM (inconclusive).

Regarding `COc1cccc(OC)c1C(=O)Nc1cc(C)on1`, the half-maximal activity concentration (AC50) at Cytochrome P450 2C19 was 39.8 µM (inconclusive); at Cytochrome P450 1A2, 22.4 µM (inconclusive); on Cytochrome P450 3A4, 20 µM (inconclusive).

On to `Cc1cc(CSc2ccccc2)ccc1NC(=O)COc1ccccc1`, for which the AC50 is 2.24 µM (inconclusive) at Cytochrome P450 2C19, 7.08 µM (inconclusive) on Cytochrome P450 1A2 and 12.6 µM (inconclusive) at Cytochrome P450 3A4.

As to `Clc1ccccc1-c1ccc2ncnc(N3CCNCC3)c2c1`, the AC50 on Cytochrome P450 2C19 is 31.6 µM (inconclusive); on Cytochrome P450 3A4, 25.1 µM (inconclusive).

Turning to `CCOc1ccc(OCC(=O)N(CCC2=CCCCC2)c2c(N)n(Cc3ccccc3)c(=O)[nH]c2=O)cc1`, the AC50 was 3.6 µM (active) in [3], 8.66 µM (active) in assay [6], 27.3 µM (active) in [7] and 25.1 µM (active) in assay [8].

With `CC(C)NC(=O)c1ccccc1NC(=O)/C=C/c1ccc([N+](=O)[O-])cc1`, the AC50 at Cytochrome P450 3A4 is 35.5 µM (inconclusive); on Cytochrome P450 2C9 it was 2 µM (inconclusive).

For `O=C(CN1CCN(Cc2ccccc2)CC1)N1CCCc2c1c(=O)oc1ccc(O)cc21`, the AC50 on Cytochrome P450 1A2 was 6.31 µM (inconclusive); at Cytochrome P450 3A4, 3.98 µM (inconclusive).

`CC[C@H]1CC[C@H]2[C@@H]3CC=C4C[C@H](OC(C)=O)[C@@H](N)C[C@@]4(C)[C@H]3CC[C@@]12C`: the AC50 at Cytochrome P450 3A4 was 2.51 µM (inconclusive).

As to `COc1ccc(-n2c(=O)c(C)nc3cnc(N4CCNCC4)nc32)cc1`, the AC50 at Cytochrome P450 3A4 was 25.1 µM (inconclusive).

In the case of `COc1cc(/C=C(/C#N)c2nc3ccccc3[nH]2)ccc1OCC(=O)Nc1ccccc1C`, the AC50 in [3] is 0.865 µM (active).

In the case of `COC(=O)c1ccccc1NC(=O)CSc1nnc(C(CO)NC(=O)c2ccccc2Cl)n1C` (configuration not stated), the AC50 on Cytochrome P450 3A4 is 22.4 µM (inconclusive).
